In ChEMBL document CHEMBL1201862, “PubChem BioAssay data set” (2004):
Values belong to the molecule of their own block, whether it stands above or below them. Activity calls are given as the source filed them.

Legend:
[1] = biological target: T1, Hexokinase (Trypanosoma brucei, UniProt Q38C41); assay: Confirmation assay for inhibitors of Trypanosoma brucei hexokinase 1-Analogue-first series. [Related pubchem assays (depositor defined):AID1430, AID1632, AID2516, AID2560, AID2579, AID2600, AID449725, AID492951]; type: functional
T1 sequence (Q38C41 whole entry): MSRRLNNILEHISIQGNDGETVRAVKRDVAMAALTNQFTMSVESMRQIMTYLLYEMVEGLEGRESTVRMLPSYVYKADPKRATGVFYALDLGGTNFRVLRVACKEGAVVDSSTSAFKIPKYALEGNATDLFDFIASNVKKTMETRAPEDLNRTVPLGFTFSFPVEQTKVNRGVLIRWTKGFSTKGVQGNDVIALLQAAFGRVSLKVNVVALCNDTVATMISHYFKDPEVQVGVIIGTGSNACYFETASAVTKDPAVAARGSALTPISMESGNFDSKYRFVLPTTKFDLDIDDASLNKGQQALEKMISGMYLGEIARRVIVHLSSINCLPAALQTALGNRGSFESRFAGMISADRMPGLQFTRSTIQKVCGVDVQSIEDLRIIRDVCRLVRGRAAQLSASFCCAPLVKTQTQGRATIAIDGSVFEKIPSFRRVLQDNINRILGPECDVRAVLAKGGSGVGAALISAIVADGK

[2] = Jurkat T cell cytotoxicity, dose response, cytotoxicity control for P. falciparum gametocyte viability project, luminescence (AID 1117277); type: functional, cell-based;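 note: potency reflects loss of cellular ATP meaning fewer viable cells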
[3] = P. falciparum late gametocyte killing, dose response, luminescence (AID 1117278); type: functional, cell-based;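 note: gametocytes exposed to compound for 24 hours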
[4] = biological target: T2, Neuropeptide Y receptor type 2 (Homo sapiens, UniProt P49146); type: functional, cell-based;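 note: HEK293 cells expressing the receptor and a CNG channel; stimulus was NPY near EC95 followed by isoproterenol to raise cAMP; antagonist potency measured as restoring cAMP signal that NPY suppresses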
T2 sequence (P49146 whole entry): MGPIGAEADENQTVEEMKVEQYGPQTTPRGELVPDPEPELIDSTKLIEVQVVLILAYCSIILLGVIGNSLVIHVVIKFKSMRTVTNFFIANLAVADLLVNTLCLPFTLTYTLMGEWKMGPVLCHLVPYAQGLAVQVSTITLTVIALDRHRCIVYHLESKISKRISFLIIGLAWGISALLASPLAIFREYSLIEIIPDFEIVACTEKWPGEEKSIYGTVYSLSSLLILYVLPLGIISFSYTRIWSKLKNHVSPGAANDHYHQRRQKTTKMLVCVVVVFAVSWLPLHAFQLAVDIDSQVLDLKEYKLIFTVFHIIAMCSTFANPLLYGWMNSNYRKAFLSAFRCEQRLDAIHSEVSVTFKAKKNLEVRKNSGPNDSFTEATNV

[5] = biological target: T3, Neuropeptide Y receptor type 1 (Homo sapiens, UniProt P25929); type: functional;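 note: HEK293 cells with a CNG channel challenged with NPY then isoproterenol; potency as antagonist that reverses NPY suppression of cAMP signal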
T3 sequence (P25929 whole entry): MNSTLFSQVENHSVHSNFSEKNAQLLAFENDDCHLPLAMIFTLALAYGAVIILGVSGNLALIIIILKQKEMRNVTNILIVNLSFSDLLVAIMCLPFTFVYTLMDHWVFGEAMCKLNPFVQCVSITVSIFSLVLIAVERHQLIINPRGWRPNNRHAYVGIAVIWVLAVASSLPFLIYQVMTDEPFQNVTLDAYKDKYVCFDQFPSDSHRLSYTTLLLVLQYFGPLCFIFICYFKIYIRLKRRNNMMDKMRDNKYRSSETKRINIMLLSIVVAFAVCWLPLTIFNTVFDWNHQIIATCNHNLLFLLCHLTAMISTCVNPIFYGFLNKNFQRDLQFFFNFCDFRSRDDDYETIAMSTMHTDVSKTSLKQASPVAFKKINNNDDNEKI

[6] = biological target: T4, Corticotropin-releasing factor receptor 2/Corticotropin-releasing factor-binding protein (Homo sapiens, UniProt P24387+Q13324); assay: Dose Response confirmation of uHTS hits for small molecule antagonists of the CRF-binding protein and CRF-R2 receptor complex.; type: functional; settings: read-out: IC50_Mean
T4 sequence (Q13324 whole entry): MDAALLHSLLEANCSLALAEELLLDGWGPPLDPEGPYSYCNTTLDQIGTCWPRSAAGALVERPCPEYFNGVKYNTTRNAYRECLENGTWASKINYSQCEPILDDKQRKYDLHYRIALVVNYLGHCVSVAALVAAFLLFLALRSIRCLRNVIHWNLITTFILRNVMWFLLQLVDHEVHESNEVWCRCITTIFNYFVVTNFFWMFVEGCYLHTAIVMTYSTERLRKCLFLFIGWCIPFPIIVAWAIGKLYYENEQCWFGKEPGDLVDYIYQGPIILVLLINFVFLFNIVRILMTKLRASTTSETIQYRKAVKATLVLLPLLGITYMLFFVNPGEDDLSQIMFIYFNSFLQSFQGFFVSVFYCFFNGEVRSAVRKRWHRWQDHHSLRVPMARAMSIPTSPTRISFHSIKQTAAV
T4 sequence (P24387 whole entry): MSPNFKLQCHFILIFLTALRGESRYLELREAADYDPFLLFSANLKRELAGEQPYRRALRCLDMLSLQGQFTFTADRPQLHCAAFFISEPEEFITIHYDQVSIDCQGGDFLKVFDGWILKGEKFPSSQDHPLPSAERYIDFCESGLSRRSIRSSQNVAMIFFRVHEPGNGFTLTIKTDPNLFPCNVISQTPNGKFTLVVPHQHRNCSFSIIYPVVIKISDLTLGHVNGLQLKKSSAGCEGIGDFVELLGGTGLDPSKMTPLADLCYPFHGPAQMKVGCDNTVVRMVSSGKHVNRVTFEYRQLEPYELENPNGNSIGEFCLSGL

[7] = biological target: T4, Corticotropin-releasing factor receptor 2/Corticotropin-releasing factor-binding protein; assay: activators of CRF receptor 2 with binding protein – uHTS hits, confirmation (AID 602473); type: functional; settings: read-out: EC50_Mean
[8] = biological target: Glyceraldehyde-3-phosphate dehydrogenase (Homo sapiens, UniProt P04406)
Sequence of Glyceraldehyde-3-phosphate dehydrogenase (P04406 whole entry): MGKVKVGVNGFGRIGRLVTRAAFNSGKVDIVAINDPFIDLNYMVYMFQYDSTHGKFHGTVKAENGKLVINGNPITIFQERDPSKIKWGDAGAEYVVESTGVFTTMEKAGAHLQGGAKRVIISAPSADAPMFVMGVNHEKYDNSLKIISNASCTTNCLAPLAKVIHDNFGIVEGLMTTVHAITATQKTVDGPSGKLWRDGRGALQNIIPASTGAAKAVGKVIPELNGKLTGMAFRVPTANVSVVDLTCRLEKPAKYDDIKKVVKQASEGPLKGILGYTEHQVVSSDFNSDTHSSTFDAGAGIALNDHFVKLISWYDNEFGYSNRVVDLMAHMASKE

[9] = biological target: T5, Tyrosine-protein phosphatase non-receptor type 7 (Homo sapiens, UniProt P35236); type: functional
T5 sequence (P35236 whole entry): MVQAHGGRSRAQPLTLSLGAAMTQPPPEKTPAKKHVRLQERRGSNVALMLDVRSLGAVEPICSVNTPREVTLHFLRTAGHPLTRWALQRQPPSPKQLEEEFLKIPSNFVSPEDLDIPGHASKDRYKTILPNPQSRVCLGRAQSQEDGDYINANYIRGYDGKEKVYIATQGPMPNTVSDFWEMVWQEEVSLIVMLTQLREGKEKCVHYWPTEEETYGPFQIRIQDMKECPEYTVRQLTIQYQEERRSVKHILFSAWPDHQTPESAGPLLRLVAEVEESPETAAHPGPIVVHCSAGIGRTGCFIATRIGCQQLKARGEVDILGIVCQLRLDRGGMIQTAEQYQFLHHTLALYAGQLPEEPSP

[10] = biological target: T6, Dual specificity protein phosphatase 6 (Rattus norvegicus, UniProt Q64346)
T6 sequence (Q64346 whole entry): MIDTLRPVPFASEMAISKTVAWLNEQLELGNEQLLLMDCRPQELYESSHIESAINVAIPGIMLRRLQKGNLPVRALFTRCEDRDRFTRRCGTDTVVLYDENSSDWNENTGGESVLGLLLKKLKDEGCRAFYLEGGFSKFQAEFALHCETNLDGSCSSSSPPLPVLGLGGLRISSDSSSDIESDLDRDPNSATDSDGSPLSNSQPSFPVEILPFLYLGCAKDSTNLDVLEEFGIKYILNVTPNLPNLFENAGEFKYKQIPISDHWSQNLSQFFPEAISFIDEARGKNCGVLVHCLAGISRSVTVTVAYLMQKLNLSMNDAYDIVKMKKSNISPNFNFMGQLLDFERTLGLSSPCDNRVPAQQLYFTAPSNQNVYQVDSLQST

[11] = biological target: T6, Dual specificity protein phosphatase 6; type: functional
[12] = Luminescence Cell-Based Dose Retest to Confirm Inhibitors of Cancer Stem Cells. [Related pubchem assays (depositor defined):AID2717, AID2721]; type: functional, Homo sapiens; settings: Homo sapiens
[13] = biological target: Peroxisome proliferator-activated receptor gamma/Nuclear receptor coactivator 1 (Homo sapiens, UniProt P37231); type: functional;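 note: agonist potency as compounds enhance coactivator SRC-1 recruitment to PPARgamma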
Sequence of Peroxisome proliferator-activated receptor gamma/Nuclear receptor coactivator 1 (P37231 whole entry): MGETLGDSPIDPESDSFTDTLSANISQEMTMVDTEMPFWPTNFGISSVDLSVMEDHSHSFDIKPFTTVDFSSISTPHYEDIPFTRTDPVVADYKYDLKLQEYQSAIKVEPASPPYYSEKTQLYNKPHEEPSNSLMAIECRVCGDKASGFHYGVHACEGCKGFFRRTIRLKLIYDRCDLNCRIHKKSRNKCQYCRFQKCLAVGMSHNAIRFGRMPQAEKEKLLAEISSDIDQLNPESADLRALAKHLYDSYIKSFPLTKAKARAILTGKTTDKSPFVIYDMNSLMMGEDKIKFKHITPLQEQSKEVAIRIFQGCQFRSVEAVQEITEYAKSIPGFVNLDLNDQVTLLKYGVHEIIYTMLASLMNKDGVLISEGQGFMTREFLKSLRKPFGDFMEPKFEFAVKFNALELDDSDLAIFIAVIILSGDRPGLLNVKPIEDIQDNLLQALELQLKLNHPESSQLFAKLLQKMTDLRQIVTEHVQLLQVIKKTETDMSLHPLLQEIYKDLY
Sequence of Peroxisome proliferator-activated receptor gamma/Nuclear receptor coactivator 1 (Q15788 whole entry, further chain): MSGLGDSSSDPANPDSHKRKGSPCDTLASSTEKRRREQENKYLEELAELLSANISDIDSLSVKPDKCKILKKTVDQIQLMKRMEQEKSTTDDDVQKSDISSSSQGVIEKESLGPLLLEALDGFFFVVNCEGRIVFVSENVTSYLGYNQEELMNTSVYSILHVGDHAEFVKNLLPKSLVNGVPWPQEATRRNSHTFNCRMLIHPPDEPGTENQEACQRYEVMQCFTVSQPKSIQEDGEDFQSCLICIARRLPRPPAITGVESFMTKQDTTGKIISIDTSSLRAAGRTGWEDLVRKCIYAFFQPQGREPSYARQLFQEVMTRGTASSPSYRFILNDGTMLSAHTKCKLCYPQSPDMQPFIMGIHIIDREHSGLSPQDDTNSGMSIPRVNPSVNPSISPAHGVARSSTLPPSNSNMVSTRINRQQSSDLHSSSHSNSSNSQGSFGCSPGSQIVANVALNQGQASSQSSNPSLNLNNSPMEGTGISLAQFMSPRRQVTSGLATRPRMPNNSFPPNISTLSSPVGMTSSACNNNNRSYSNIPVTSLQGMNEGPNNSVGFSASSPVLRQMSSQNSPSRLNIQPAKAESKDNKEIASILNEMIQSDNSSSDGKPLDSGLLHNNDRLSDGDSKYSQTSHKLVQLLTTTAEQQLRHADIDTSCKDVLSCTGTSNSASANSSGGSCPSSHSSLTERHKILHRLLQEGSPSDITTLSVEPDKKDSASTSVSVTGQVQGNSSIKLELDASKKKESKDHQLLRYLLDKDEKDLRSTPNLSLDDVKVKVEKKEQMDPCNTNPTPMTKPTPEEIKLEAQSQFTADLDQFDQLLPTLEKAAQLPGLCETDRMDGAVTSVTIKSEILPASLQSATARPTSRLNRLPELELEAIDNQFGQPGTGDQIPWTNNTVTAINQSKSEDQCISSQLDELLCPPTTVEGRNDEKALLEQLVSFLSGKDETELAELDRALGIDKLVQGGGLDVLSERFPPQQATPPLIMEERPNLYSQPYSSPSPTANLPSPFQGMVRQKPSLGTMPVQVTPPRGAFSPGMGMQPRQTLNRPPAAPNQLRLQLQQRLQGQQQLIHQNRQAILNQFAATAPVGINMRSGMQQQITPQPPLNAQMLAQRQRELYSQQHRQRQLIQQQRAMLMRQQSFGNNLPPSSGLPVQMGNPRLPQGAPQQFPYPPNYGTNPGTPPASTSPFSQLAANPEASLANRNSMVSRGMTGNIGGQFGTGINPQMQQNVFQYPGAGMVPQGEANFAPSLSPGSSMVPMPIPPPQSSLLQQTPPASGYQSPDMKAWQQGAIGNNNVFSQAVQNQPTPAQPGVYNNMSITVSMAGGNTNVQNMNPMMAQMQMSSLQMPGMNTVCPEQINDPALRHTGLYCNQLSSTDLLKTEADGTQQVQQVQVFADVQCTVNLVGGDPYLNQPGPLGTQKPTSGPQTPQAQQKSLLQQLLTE

[14] = test system: INS1; assay: beta cell apoptosis inhibitors, cytokine rescue, dose response, luminescence, retest (AID 449756); type: functional, cell-based; settings: Rattus norvegicus;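 note: cell death triggered by IL-1 beta plus TNF-alpha plus IFN-gamma mixture; protective hits raise ATP signal compared with cytokine alone wells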
[15] = biological target: Large T antigen (Simian virus 40, UniProt P03070); type: functional, Betapolyomavirus macacae;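 note: Confirmatory-stage PubChem screen for compounds that inhibit SV40 T antigen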
Sequence of Large T antigen (P03070 whole entry): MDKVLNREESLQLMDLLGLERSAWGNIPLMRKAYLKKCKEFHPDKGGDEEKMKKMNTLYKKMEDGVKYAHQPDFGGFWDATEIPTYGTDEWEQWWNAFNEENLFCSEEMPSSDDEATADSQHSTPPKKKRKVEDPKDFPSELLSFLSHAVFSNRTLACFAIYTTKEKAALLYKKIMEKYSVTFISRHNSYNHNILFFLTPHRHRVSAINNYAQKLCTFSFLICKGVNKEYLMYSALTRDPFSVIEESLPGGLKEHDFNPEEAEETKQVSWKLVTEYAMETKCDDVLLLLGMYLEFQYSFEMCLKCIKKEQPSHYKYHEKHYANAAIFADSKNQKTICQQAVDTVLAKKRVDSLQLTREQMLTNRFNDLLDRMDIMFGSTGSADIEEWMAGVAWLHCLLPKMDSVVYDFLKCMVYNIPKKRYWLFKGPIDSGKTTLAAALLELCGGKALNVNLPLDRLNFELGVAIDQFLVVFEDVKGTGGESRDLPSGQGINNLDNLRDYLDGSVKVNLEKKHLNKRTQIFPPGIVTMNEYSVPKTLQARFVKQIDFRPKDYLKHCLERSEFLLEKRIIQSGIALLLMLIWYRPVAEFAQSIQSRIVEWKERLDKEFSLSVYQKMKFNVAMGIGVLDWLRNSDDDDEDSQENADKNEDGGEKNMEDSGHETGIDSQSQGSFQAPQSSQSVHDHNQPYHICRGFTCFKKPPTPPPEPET

[16] = biological target: Peroxisome proliferator-activated receptor gamma/Nuclear receptor coactivator 3 (Homo sapiens, UniProt P37231); type: functional;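 note: agonist potency for raising coactivator recruitment to the receptor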
Sequence of Peroxisome proliferator-activated receptor gamma/Nuclear receptor coactivator 3 (P37231 whole entry): as the sequence (P37231 whole entry) above
Sequence of Peroxisome proliferator-activated receptor gamma/Nuclear receptor coactivator 3 (Q9Y6Q9 whole entry, further chain): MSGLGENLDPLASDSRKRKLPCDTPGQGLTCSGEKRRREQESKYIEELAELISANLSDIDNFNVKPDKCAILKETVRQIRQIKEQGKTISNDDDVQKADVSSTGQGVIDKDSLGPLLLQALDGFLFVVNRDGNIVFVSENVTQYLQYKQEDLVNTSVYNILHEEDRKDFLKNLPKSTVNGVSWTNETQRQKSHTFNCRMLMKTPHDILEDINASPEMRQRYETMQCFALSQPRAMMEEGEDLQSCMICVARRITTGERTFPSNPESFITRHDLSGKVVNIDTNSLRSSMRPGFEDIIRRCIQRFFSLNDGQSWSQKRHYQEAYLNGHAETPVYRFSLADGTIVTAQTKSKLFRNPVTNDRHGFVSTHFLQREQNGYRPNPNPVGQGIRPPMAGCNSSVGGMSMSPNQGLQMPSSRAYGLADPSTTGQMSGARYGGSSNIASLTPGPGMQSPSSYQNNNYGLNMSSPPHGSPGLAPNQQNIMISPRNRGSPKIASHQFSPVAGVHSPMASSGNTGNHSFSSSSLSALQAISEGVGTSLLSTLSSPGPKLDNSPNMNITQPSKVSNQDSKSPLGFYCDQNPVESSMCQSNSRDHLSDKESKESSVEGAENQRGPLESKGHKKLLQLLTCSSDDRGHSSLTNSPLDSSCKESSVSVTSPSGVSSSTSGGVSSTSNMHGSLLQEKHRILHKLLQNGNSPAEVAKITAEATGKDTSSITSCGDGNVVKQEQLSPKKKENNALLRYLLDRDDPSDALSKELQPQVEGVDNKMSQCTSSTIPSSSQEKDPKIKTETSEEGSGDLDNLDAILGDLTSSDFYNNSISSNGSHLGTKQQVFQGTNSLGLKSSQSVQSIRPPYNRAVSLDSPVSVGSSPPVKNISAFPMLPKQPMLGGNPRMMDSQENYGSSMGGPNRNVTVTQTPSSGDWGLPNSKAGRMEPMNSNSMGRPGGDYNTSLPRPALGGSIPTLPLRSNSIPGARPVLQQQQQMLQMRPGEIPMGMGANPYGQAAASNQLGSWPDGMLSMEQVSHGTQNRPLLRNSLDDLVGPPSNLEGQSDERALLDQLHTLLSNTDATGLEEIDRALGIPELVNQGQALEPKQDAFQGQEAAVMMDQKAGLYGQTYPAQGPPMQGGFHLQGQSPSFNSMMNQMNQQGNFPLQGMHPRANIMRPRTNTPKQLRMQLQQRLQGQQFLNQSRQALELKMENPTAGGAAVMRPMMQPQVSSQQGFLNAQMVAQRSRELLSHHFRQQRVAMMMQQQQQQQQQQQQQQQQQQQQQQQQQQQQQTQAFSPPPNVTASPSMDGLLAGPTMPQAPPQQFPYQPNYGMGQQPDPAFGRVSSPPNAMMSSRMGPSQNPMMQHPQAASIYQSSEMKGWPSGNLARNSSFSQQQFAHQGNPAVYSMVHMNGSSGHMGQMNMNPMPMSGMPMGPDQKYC

[17] = biological target: Peroxisome proliferator-activated receptor gamma/Nuclear receptor coactivator 2 (Homo sapiens, UniProt P37231); type: functional;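 note: agonist potency for raising coactivator recruitment to the receptor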
[18] = growth suppression of beta-catenin-knockout colon cells, dose response, cell-based, HCT116, human colon tumor (AID 1045); type: functional;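 note: HCT116 colon tumor cells with beta catenin knocked out; cells exposed to compound for 60 hours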
[19] = growth suppression of PTEN-null colon cells, dose response, cell-based, HCT116 PTEN knockout (AID 1047); type: functional;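 note: HCT116 colon tumor cells with PTEN knocked out; cells exposed to compound for 60 hours before readout; potency for loss of cell viability measured by luminescence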
[20] = biological target: Prothrombin (Homo sapiens, UniProt P00734); assay: Thrombin 1536 HTS Dose Response Confirmation. [Related pubchem assays: 1046 (Thrombin 1536 HTS; hits were confirmed in this assay)]; type: functional
[21] = HeLa 2N DNA content increase, dose response, cell-based, IC50 (AID 1117349); type: functional
[22] = HeLa 4N DNA content increase, dose response, cell-based, IC50 (AID 1117351); type: functional

Structure (SMILES): CC(C)(C)c1ccc(C(=O)Nc2cc(Cl)ccc2C(=O)O)cc1
- IC50 [1]: 2.12 µM (active)

Structure (SMILES): O=C(Cn1c(C(F)(F)F)nc2ccccc21)Nc1ccccc1C(=O)O
- IC50 [2]: > 83.3 µM (inactive)
- IC50 [3]: > 109 µM (inactive)

- IC50 [4]: 7.94 µM (active)
- IC50 [5]: 7.08 µM (active)
- IC50 [6]: > 47.1 µM (inactive)
- EC50 [7]: > 53 µM (inactive)
Structure (SMILES): C/C(=N\OC(=O)c1ccc(OC(C)C)cc1)c1ccc(C)c(C)c1

- IC50 [8]: > 100 µM (not active)
- IC50 [9]: > 100 µM (not active)
- IC50 [10]: > 100 µM (inactive)
- IC50 [11]: > 100 µM (inactive)
Structure (SMILES): CCn1c(=O)n(Cc2ccc([N+](=O)[O-])cc2)c(=O)n([C@@H](Cc2ccccc2)C(=O)O)c1=O

Structure (SMILES): COc1cc(SC#N)ccc1/N=C/c1c(C)[nH]n(-c2ccc(C)cc2)c1=O
- AC50 [12]: 2.9 µM (active)
- EC50 [13]: > 79.4 µM (not active)
- AC50 [14]: 3.6 µM (active)
- IC50 [15]: 21.2 µM (active)
- EC50 [16]: > 79.4 µM (not active)
- EC50 [17]: > 79.4 µM (not active)
- EC50 [18]: 107 µM (active)
- EC50 [19]: 56.6 µM (active)

- IC50 [4]: 6.47 µM (active)
- IC50 [5]: 8.3 µM (active)
Structure (SMILES): O=C(CSCc1ccc(Cl)cc1)N/N=C/c1c(Cl)cccc1Cl

Structure (SMILES): COc1ccc(OC)c(S(=O)(=O)Nc2c(C)cccc2C)c1
- IC50 [2]: > 83.3 µM (inactive)
- IC50 [3]: > 109 µM (inactive)

- IC50 [20]: 0.828 µM (active)
Structure (SMILES): COc1ccc(C(=O)n2nc(-c3ccco3)nc2N)cc1

Structure (SMILES): CCC(C)n1ncn(-c2ccc(N3CCN(c4ccc(OC[C@H]5CO[C@](Cn6cncn6)(c6ccc(Cl)cc6Cl)O5)cc4)CC3)cc2)c1=O (stereo partly specified) [ITRACONAZOLE]
- IC50 [21]: > 10 µM (inactive)
- IC50 [22]: > 10 µM (inactive)
